Results as given in patent publication US8143403B2 (Bristol-Myers Squibb Company, priority 2008, dated 2012).
Several values for one entry are separate records, joined by “and”; a condition that tells them apart may be missing. Identical values can stand only once.

What was measured:
[1] = molecular target: T1, CGRP receptors (SK-N-MC cell membranes) (Homo sapiens, UniProt O60894+Q16602); experiment: Saturation/Scatchard analysis of [125I]-CGRP binding to SK-N-MC cell membranes
T1 construct: Crude membranes were prepared from SK-N-MC cells expressing CGRP receptors; endogenous in cells; host or cells: SK-N-MC cells (crude membranes)
Experimental: FIG. 1. [^125I]-CGRP Saturation/Scatchard Analysis. [^125I]-CGRP saturation using SK-N-MC membranes in the absence (filled squares) and presence (all others) of CGRP antagonist example 20. Inset depicts a Scatchard plot of same data.
Saturation/Scatchard Analysis. The nature of the interaction between the human CGRP peptide and example 20 was studied in detail using saturation binding experiments. The binding of increasing concentrations of [^125I]-CGRP to SK-N-MC cell membranes was measured in the absence (control condition) and in the presence of 300 pM and 600 pM example 20. Saturation data were analyzed using a one site binding equation to estimate apparent equilibrium dissociation constant (Kd) and the maximum number of binding sites (Bmax) (Prizm v4.0, Graphpad). The impact of the addition of example 20 to the binding parameters (Kd, Bmax) of [^125I]-CGRP binding was measured and compared. […] Example 20 was evaluated in 3 separate experiments (for representative dataset, see FIG. 1. [^125I]-CGRP Saturation/Scatchard Analysis). Functional Antagonism/Schild analysis. Agonist stimulation of CGRP receptor complex leads to cyclic AMP (adenosine 3′5′-cyclic monophosphate) production via Gs-dependent activation of an adenylate cyclase (Juaneda C et al., TiPS, 2000; 21:432-438). Consequently, CGRP receptor antagonists inhibit CGRP-induced cyclic AMP formation in SK-N-MC cells which natively express the CGRP receptor complex (Doods H et al., Br J Pharmacol, 2000; 129(3):420-423). Example 20 was evaluated for its ability to block CGRP induced cAMP formation using a commercially available cAMP HTRF kit (catalog number 62AM2PEC, CisBio International). […] The cells were lysed with lysis reagent and cAMP concentrations were determined by HTRF according to the manufacturer's instructions. A standard curve using known quantities of cAMP was evaluated in parallel to allow conversion of HTRF ratio to nM cAMP. The resulting curves were then evaluated using a Gaddum/Schild equation individually and with global fitting (Prizm v4.0, Graphpad). […]

[2] = molecular target: CGRP receptor complex (Homo sapiens, UniProt O60894+Q16602); experiment: Functional antagonism/Schild analysis, CGRP-stimulated cAMP production (HTRF) in SK-N-MC cells; type: cell-based
Experimental: Saturation/Scatchard Analysis. […] Saturation data were analyzed using a one site binding equation to estimate apparent equilibrium dissociation constant (Kd) and the maximum number of binding sites (Bmax) (Prizm v4.0, Graphpad). […] Functional Antagonism/Schild analysis. Agonist stimulation of CGRP receptor complex leads to cyclic AMP (adenosine 3′5′-cyclic monophosphate) production via Gs-dependent activation of an adenylate cyclase (Juaneda C et al., TiPS, 2000; 21:432-438). Consequently, CGRP receptor antagonists inhibit CGRP-induced cyclic AMP formation in SK-N-MC cells which natively express the CGRP receptor complex (Doods H et al., Br J Pharmacol, 2000; 129(3):420-423). […] A Schild analysis format was used, which allowed investigation of the mechanism of antagonism. […] Various concentrations of CGRP were added and the cells were allowed to incubate 30 min at room temperature. The cells were lysed with lysis reagent and cAMP concentrations were determined by HTRF according to the manufacturer's instructions. A standard curve using known quantities of cAMP was evaluated in parallel to allow conversion of HTRF ratio to nM cAMP. The resulting curves were then evaluated using a Gaddum/Schild equation individually and with global fitting (Prizm v4.0, Graphpad). […] To obtain a global fit the following parameters were shared (top, bottom, logEC50, Hill slope and pA2) and all curves were fit simultaneously. […] Non-Terminal Method for Assessing In Vivo Efficacy of Small Molecule CGRP-Receptor Antagonists in Mammals Overview. […] Non-human primates (e.g., marmosets) are the only animals known to have human-like CGRP receptor pharmacology conferred by the presence of the specific amino acid residue (Trp74) in their RAMP1 sequence which is responsible for the phenotype of the human receptor (Mallee et al. J Biol Chem 2002 277:14294). […]

T1 sequence (Q16602 23-461): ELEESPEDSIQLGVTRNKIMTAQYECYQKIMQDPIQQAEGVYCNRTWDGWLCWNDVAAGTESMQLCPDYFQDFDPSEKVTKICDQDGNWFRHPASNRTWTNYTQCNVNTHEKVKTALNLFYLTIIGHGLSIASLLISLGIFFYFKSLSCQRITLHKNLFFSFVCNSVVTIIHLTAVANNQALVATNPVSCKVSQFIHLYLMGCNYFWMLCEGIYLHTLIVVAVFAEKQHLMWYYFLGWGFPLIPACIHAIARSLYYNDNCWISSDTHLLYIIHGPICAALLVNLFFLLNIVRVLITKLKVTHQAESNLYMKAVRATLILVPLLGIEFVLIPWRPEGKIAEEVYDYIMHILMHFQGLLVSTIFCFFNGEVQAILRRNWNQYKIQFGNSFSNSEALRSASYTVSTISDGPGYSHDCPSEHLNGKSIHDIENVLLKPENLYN
T1 sequence (O60894 27-148): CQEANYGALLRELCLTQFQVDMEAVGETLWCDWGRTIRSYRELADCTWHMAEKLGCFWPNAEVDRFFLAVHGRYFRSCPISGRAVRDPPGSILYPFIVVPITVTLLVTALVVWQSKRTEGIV
Sequence of CGRP receptor complex (Q16602 23-461): as the sequence (Q16602 23-461) above
Sequence of CGRP receptor complex (O60894 27-148): as the sequence (O60894 27-148) above

O=C(O[C@@H]1CC[C@@H](c2cccc(F)c2F)Cc2cccnc21)N1CCC(n2c(=O)[nH]c3ncccc32)CC1 [Example 20]
effect on maximum binding sites of [125I]-CGRP binding (Bmax) ([1]; 300 pM and 600 pM example 20 vs control): without significantly changing the maximum binding sites | effect on Kd of [125I]-CGRP binding ([1]; 300 pM and 600 pM example 20 vs control, 3 experiments): dose-dependently increased the Kd | mechanism of inhibition of [125I]-CGRP binding ([1]; saturation binding): competitive mechanism of inhibition | effect on maximal CGRP response (cAMP production) ([2]; 15 min pre-incubation, 0.3 to 24 nM antagonist): without altering the maximal response | Kb ([2]; global Gaddum/Schild fit, Schild slope of 1, two datasets): 0.247 ± 0.04 nM | Schild slope ([2]; global fits with unconstrained Schild slope, two separate experiments): 1.17 and 0.8
